ChEMBL document CHEMBL2417421, “Biotransformation of ent-pimaradienoic acid by cell cultures of Aspergillus niger” (2013)

These compounds were tested on Aorta (assay: Antispasmodic activity in rat aorta assessed as inhibition of phenylephrine-induced aorta contraction at 100 uM after 60 mins relative to control). Conditions: 1 h.
Type: functional
In the case of `C=C[C@]1(C)C=C2CC[C@H]3[C@@](C)(CCC[C@@]3(C)C(=O)O)[C@@H]2CC1`, the inhibition at 100 µM is reported as 73.2%.
`C=C[C@]1(C)C=C2[C@H](O)C[C@H]3[C@@](C)(CCC[C@@]3(C)C(=O)O)[C@@H]2CC1` was tested, and the inhibition at 100 µM was 16.8%.
`C=C[C@]1(C)C=C2C=C[C@H]3[C@](C)([C@@H]2CC1)[C@@H](O)CC[C@@]3(C)C(=O)O` showed an inhibition at 100 µM of 12.5%.
`C=C[C@@]1(C)CC[C@@H]2C(=C[C@H](O)[C@H]3[C@@]2(C)[C@H](O)CC[C@@]3(C)C(=O)O)[C@H]1O` gave an inhibition at 100 µM of 0%.
With `C=C[C@]1(C)C=C2[C@@H](O)[C@H](O)[C@H]3[C@@](C)([C@H](O)CC[C@@]3(C)C(=O)O)[C@@H]2[C@@H](O)C1` the inhibition at 100 µM was 0%.
`C=C[C@@]1(C)CC[C@@H]2C(=CC[C@H]3[C@@]2(C)CCC[C@@]3(C)C(=O)O)C1` showed an inhibition at 100 µM of 50.8%.
For `C=C[C@]1(C)C=C2C(=O)C[C@H]3[C@@](C)(CCC[C@@]3(C)C(=O)O)[C@@H]2CC1`, the inhibition at 100 µM was 61.5%.
`C=C[C@]1(C)C=C2[C@@H](CC1)[C@]1(C)CCC[C@@](C)(C(=O)OC)[C@H]1C[C@@H]2O` gave an inhibition at 100 µM of 82.5%.
In the case of `C=C[C@]1(C)C=C2CC[C@@H]3[C@](C)(CO)CCC[C@@]3(C)[C@@H]2CC1`, the inhibition at 100 µM is reported as 58.8%.
With `C=C[C@]1(C)C=C2CC[C@H]3[C@@](C)(CCC[C@@]3(C)C(=O)OC)[C@@H]2CC1` the inhibition at 100 µM was 10.5%.
